Experiments:
[1] = test system: CCRF-CEM; experiment: Growth inhibition of human CCRF-CEM cells after 48 hrs by sulforhodamine B assay; assay type: functional
[2] = test system: HCT-15; experiment: Growth inhibition of human HCT15 cells after 48 hrs by sulforhodamine B assay; assay type: functional; settings: HCT-15, 48 h
[3] = test system: HT-29; experiment: Growth inhibition of human HT-29 cells after 48 hrs by sulforhodamine B assay; assay type: functional; settings: HT-29, 48 h
[4] = test system: U-251; experiment: Growth inhibition of human U251 cells after 48 hrs by sulforhodamine B assay; assay type: functional; settings: U-251, 48 h
[5] = test system: M14; experiment: Growth inhibition of human M14 cells after 48 hrs by sulforhodamine B assay; assay type: functional; settings: M14, 48 h
[6] = test system: SK-MEL-28; experiment: Growth inhibition of human SK-MEL-28 cells after 48 hrs by sulforhodamine B assay; assay type: functional; settings: SK-MEL-28, 48 h
[7] = test system: 786-0; experiment: Growth inhibition of human 786-0 cells after 48 hrs by sulforhodamine B assay; assay type: functional; settings: 786-0, 48 h
[8] = test system: RXF 393; experiment: Growth inhibition of human RXF393 cells after 48 hrs by sulforhodamine B assay; assay type: functional; settings: RXF 393, 48 h
[9] = test system: TK-10; experiment: Growth inhibition of human TK10 cells after 48 hrs by sulforhodamine B assay; assay type: functional; settings: TK-10, 48 h
[10] = test system: NCI/ADR-RES; experiment: Growth inhibition of human NCI/ADR-RES cells after 48 hrs by sulforhodamine B assay; assay type: functional
[11] = test system: MDA-MB-435; experiment: Growth inhibition of human MDA-MB-435 cells after 48 hrs by sulforhodamine B assay; assay type: functional; settings: MDA-MB-435, 48 h
[12] = test system: HL-60; experiment: Antitumor activity against human HL60 cells xenografted athymic nude mouse at 25 mg/kg, sc administered QD for 10 days relative to control; assay type: functional; settings: route subcutaneous
[13] = test system: HL-60; experiment: Antitumor activity against human HL60 cells xenografted athymic nude mouse assessed as delay in tumor growth time at 25 mg/kg, sc administered QD; assay type: functional; settings: route subcutaneous
[14] = test system: Mus musculus; experiment: Toxicity in human HL60 cells xenografted athymic nude mouse assessed as mortality at 50 mg/kg, sc administered QD for 10 days; assay type: organism-based, HL-60; set-up: dose 50 mg/kg, route subcutaneous; settings: in vivo, 240 h
[15] = test system: Mus musculus; experiment: Toxicity in human HL60 cells xenografted athymic nude mouse assessed as mortality at 25 mg/kg, sc administered QD for 10 days; assay type: organism-based, HL-60; set-up: dose 25 mg/kg, route subcutaneous; settings: in vivo, 240 h
[16] = test system: Mus musculus; experiment: Toxicity in human HL60 cells xenografted athymic nude mouse assessed as body weight loss at 25 mg/kg, sc administered QD for 10 days relative to control; assay type: organism-based, HL-60; set-up: dose 25 mg/kg, route subcutaneous; settings: in vivo, 240 h
[17] = test system: HUVEC; experiment: Antiangiogenic activity against HUVEC assessed as growth inhibition by NCI antiangiogenesis assay; assay type: functional, cell-based; settings: Homo sapiens
[18] = test system: HUVEC; experiment: Antiangiogenic activity against HUVEC assessed as inhibition of VEGF-induced cell migration by NCI antiangiogenesis assay; assay type: functional, cell-based; settings: Homo sapiens
[19] = test system: HUVEC; experiment: Antiangiogenic activity against HUVEC assessed as inhibition of capillary-like structure formation by NCI antiangiogenesis assay; assay type: functional, cell-based; settings: Homo sapiens
[20] = test system: HOP-62; experiment: Growth inhibition of human HOP62 cells after 48 hrs by sulforhodamine B assay; assay type: functional; settings: HOP-62, 48 h
[21] = test system: COLO 205; experiment: Growth inhibition of human COLO205 cells after 48 hrs by sulforhodamine B assay; assay type: functional; settings: COLO 205, 48 h
[22] = Selectivity index, ratio of TC50 for african green monkey (Cercopithecus aethiops) Vero cells to IC50 for chloroquine-resistant Plasmodium falciparum W2; assay type: toxicity, cell-based
[23] = test system: Leishmania donovani; experiment: Antileishmanial activity against Leishmania donovani promastigotes after 48 hrs by alamar-blue assay; assay type: functional, organism-based
[24] = test system: HL-60; experiment: Antitumor activity against human HL60 cells xenografted athymic nude mouse at 50 mg/kg, sc administered QD for 10 days relative to control; assay type: functional; settings: route subcutaneous
[25] = test system: HL-60; experiment: Antitumor activity against human HL60 cells xenografted athymic nude mouse assessed as delay in tumor growth time at 50 mg/kg, sc administered QD; assay type: functional; settings: route subcutaneous
[26] = test system: Mus musculus; experiment: Toxicity in human HL60 cells xenografted athymic nude mouse assessed as body weight loss at 50 mg/kg, sc administered QD for 10 days relative to control; assay type: organism-based, HL-60; set-up: dose 50 mg/kg, route subcutaneous; settings: in vivo, 240 h

Row | Structure (SMILES) | GI50 [1] [nM] | GI50 [2] [nM] | GI50 [3] [nM] | GI50 [4] [nM] | GI50 [5] [nM] | GI50 [6] [nM] | GI50 [7] [nM] | GI50 [8] [nM] | GI50 [9] [nM] | GI50 [10] [nM] | GI50 [11] [nM] | T/C [12] [%] | IC50 [17] [nM] | IC50 [18] [nM] | IC50 [19] [nM] | GI50 [20] [nM] | GI50 [21] [nM] | selectivity ratio [22] | IC50 [23] [nM] | IC90 [23] [nM] | other results
1 | C[C@H]1[C@@H](OCC(CO[C@H]2O[C@@H]3O[C@@]4(C)CC[C@H]5[C@H](C)CC[C@@H]([C@H]2C)[C@@]35OO4)OC(=O)CCC(=O)O)O[C@@H]2O[C@@]3(C)CC[C@H]4[C@H](C)CC[C@@H]1[C@@]24OO3 (stereo not given in full) | 78 | < 10 | < 10 | < 10 | < 10 | 8380 | 23 | < 10 | 211 | 207 | 13 | 23 | 56000 | 45300 | 45800 | 86 | < 10 |  |  |  | Activity [13]: 30 days; Activity [14]: Toxic; Activity [15]: Non-toxic; Activity [16]: 1%
2 | COCC(CO[C@H]1O[C@@H]2O[C@@]3(C)CC[C@H]4[C@H](C)CC[C@@H]([C@H]1C)[C@@]24OO3)O[C@H]1O[C@@H]2O[C@@]3(C)CC[C@H]4[C@H](C)CC[C@@H]([C@H]1C)[C@@]24OO3 (stereo not given in full) | 19 | 17 | 19 | 21 | 49 | 5750 | 185 | 2970 | 58 | 533 | 443 |  |  |  |  | 5620 | 11 | > 159 |  |  | 
3 | C[C@H]1[C@H](OCCO[C@H]2O[C@@H]3O[C@@]4(C)CC[C@H]5[C@H](C)CC[C@@H]([C@H]2C)[C@@]35OO4)O[C@@H]2O[C@@]3(C)CC[C@H]4[C@H](C)CC[C@@H]1[C@@]24OO3 | 25 | 17 | 38 | 49 | 7600 | 727 | 324 | 54 | 64 | 55 | 45 |  |  |  |  | 11600 | 15 | > 37 |  |  | 
4 | C[C@H]1[C@@H](OCC(=O)CO[C@H]2O[C@@H]3O[C@@]4(C)CC[C@H]5[C@H](C)CC[C@@H]([C@H]2C)[C@@]35OO4)O[C@@H]2O[C@@]3(C)CC[C@H]4[C@H](C)CC[C@@H]1[C@@]24OO3 | < 10 | < 10 | < 10 | < 10 | < 10 | 11700 | 93 | 12600 | 278 | 40 | 17 |  | 57000 | 28500 | > 50000 | 11900 | < 10 | > 23800 | 10400 | 80300 | 
5 | C[C@H]1[C@@H](O[C@H]2CC[C@@H](O[C@H]3O[C@@H]4O[C@@]5(C)CC[C@H]6[C@H](C)CC[C@@H]([C@H]3C)[C@@]46OO5)CC2)O[C@@H]2O[C@@]3(C)CC[C@H]4[C@H](C)CC[C@@H]1[C@@]24OO3 | < 5 | 14 | 26 | 19 | 27 | 85 | 31 | 18 | 29 | 77 | 28 | 50 | 42000 | 3300 | 38800 | 12300 | 7 | > 915 | 7700 | 77100 | T/C [24]: 34%; Activity [25]: 36 days; Activity [13]: 8 days; Activity [14]: Non-toxic; Activity [15]: Non-toxic; Activity [26]: 17%; Activity [16]: 3%
6 | C[C@H]1[C@@H](O[C@H]2CC[C@H](O[C@H]3O[C@@H]4O[C@@]5(C)CC[C@H]6[C@H](C)CC[C@@H]([C@H]3C)[C@@]46OO5)CC2)O[C@@H]2O[C@@]3(C)CC[C@H]4[C@H](C)CC[C@@H]1[C@@]24OO3 | < 10 | < 10 | 11 | 16 | 61 | 98800 | 27 | 294 | 119 | 130 | 70 |  |  |  |  | 65 | < 10 | > 553 | 7400 | 18500 | 
7 | C[C@H]1[C@@H](OCC(O)CO[C@@H]2C[C@@H]3CC[C@@H](C)[C@@H]4CC[C@@]5(C)OO[C@@]34[C@H](O2)O5)O[C@@H]2O[C@@]3(C)CC[C@H]4[C@H](C)CC[C@@H]1[C@@]24OO3 (stereo not given in full) | 104 | 27 | 268 |  | 14900 | 9390 | 417 | 213 |  | 340 | 301 | 68 | 77000 | 1800 | 30800 | 13300 | 40 | > 6430 | 5000 | 16000 | T/C [24]: 34%; Activity [25]: 34 days; Activity [13]: 16 days; Activity [14]: Non-toxic; Activity [15]: Non-toxic; Activity [26]: 5%; Activity [16]: 2%
8 | C[C@H]1[C@@H](OCCO[C@H]2O[C@@H]3O[C@@]4(C)CC[C@H]5[C@H](C)CC[C@@H]([C@H]2C)[C@@]35OO4)O[C@@H]2O[C@@]3(C)CC[C@H]4[C@H](C)CC[C@@H]1[C@@]24OO3 | 68 | 19 | 41 | 267 | 183 | 32500 | 305 | 10600 | 206 | 243 | 572 |  |  |  |  | 107 | 490 | > 64 |  |  | 

From ChEMBL document CHEMBL1140860, “Synthesis and evaluation of dihydroartemisinin and dihydroartemisitene acetal dimers showing anticancer and antiprotozoal activity” (Bioorg Med Chem, 2009)
